# Values quoted from earlier work as cited in patent publication US20160128340A1, “Pest control formulation composed of Beauveria bassiana, Cold Pressed Neem Oil and Refined Pyrethrum Extract, and methods of making and using same” (priority 2014, published 2016).
# Test system: Bemisia tabaci
# Conditions: Bemisia tabaci population collected in a floriculture greenhouse
row,Compound,resistance factor at LC50 [fold]
1,O=[N+]([O-])NC1=NCCN1Cc1ccc(Cl)nc1 [imidacloprid],730
2,CCN(CC)c1nc(C)cc(OP(=S)(OC)OC)n1 [pirimiphos-methyl],18
3,CC1(C)C(C=C(Cl)Cl)C1C(=O)OC(C#N)c1cccc(Oc2ccccc2)c1 (stereo not drawn) [α-cypermethrin],80
4,Cc1c(COC(=O)[C@@H]2[C@H](/C=C(\Cl)C(F)(F)F)C2(C)C)cccc1-c1ccccc1 (racemic) [bifenthrin],23
